{"source": "patent US8288350B2", "about": "“Methods to prevent and treat diseases” (Nour Heart, Inc., priority 2006, dated 2012)", "key": {"[1]": {"test": "Global warm ischemia by aortic cross clamping, then working Longerdorff heart", "assay_type": "in vivo, dog", "procedure": "Cyclocreatine (25 gm in 500 ml saline) was injected intravenously into a dog one hour before the induction of global warm ischemia. Control dogs received saline. All dogs underwent one hour of global warm ischemia by cross clamping the aorta. After the one hour of warm ischemia, hearts were removed, perfused for an additional four hours with buffer containing 1% cyclocreatine ([…]), and then placed on a working Longerdorff to measure cardiac function. After the initiation of the aortic cross clamping, cyclocreatine-treated heart continued to beat for 9 minutes during warm ischemia, while the control heart stopped beating after 2 minutes. Similarly, myocardial pH was 7.04 in the cyclocreatine-treated heart compared to pH 6.00 in control heart when measured 6 minutes after the induction of warm ischemia.\nThe results indicated a reduction of the caspase enzyme activities in the cyclocreatine dog (26-76% reduction of baseline) compared to the significant stimulation observed in control dogs (1.44-3.86-fold increase over baseline). […] Cyclocreatine treatment may stimulate the anti-apoptotic members of the family such as Bcl-2 and/or Bcl-x, or inhibit the pro-apoptotic members of the family such as Bak, Bax, and Bim."}, "[2]": {"tested_on": "Neutrophils isolated from human peripheral blood", "test": "Inhibition of neutrophil chemotaxis induced by human vascular Nourin (vein graft samples, 96 well chemotaxis plates)", "assay_type": "cell-based", "procedure": "Isolated Human Vein Grafts: Patients' leg veins were removed from five patients scheduled for coronary bypass surgery. The samples for each patient were distended for 10 minutes at 300 mm Hg pressure and incubated in buffer (HBSS) for 1 hour at room temperature. Undistended vein grafts were incubated at room temperature in HBSS for one hour and then the solutions were tested for chemotactic activity.\nChemotaxis Assay: The chemotactic activity of vein samples was tested using standard chemotaxis assay. Briefly, neutrophils were isolated from human peripheral blood and labeled by fluorescence dye. These labeled neutrophils were used as migratory cells and placed on the top chamber of the 96 well chemotaxis plates. The vein samples were placed at the bottom wells of the plate. A filter was placed in between and the ability of the tested samples to stimulate the migration of neutrophils across the membrane was determined by incubating the chamber at 37° C. for 1 hour. The standard synthetic chemoattractant f-Met-Leu-Phe (f-MLF (SEQ ID NO:11)) was used as the positive control for 100% chemotactic response. Hank's Balanced Salt Solution (HBSS) was the negative control for random migration. Neutrophil migration was reported as the number of labeled neutrophils detected at the bottom wells which crossed the membrane filter in response to the test solutions. The samples were tested in triplicate wells.\nInhibition of the human vascular Nourin by the N-formylmethionyl blocker t-Boc-FLFLF (SEQ ID NO:2): t-Boc FLFLF (SEQ ID NO:2) is a FPR antagonist and was tested for its ability to inhibit Nourin activity on neutrophil migration. In the chemotaxis chamber, t-Boc-FLFLF (SEQ ID NO:2) was used at a final concentrations of 10^−5 Molar. […] In one human sample, t-Boc-FLFLF (SEQ ID NO:2) inhibited 100% of neutrophil chemotaxis. Similarly, the FPR antagonist Spinorphin inhibited neutrophil chemotaxis stimulated by Nourin."}, "[3]": {"tested_on": "Neutrophils isolated from human peripheral blood", "test": "Inhibition of neutrophil chemotaxis induced by chemotactic factor released by H1N1-infected MDCK cells (modified chemotaxis chamber)", "assay_type": "cell-based", "details": "concentrations about 10^-5 to 10^-3 Molar; supernatant of MDCK cells incubated with H1N1 for 6 hours"}, "[4]": {"tested_on": "Neutrophils isolated from human peripheral blood", "test": "Inhibition of fMLF chemotactic activity (chemotaxis chamber)", "assay_type": "cell-based", "details": "FIG. 3"}}, "note": "Where no end group is shown, it is not given here. The star is where a group is joined. Boc = CC(C)(C)OC(=O)*"}
{"molecule": "NC1=NCCN1CC(=O)O", "note": "[cyclocreatine]", "values": [{"measurement": "myocardial pH", "setting": "[1]; 6 minutes after induction of warm ischemia, control pH 6.00", "result": 7.04}, {"measurement": "reduction of caspase enzyme activities", "setting": "[1]; control dogs 1.44-3.86-fold increase over baseline", "result": "26-76 % reduction of baseline"}, {"measurement": "time heart continued to beat during warm ischemia after aortic cross clamping", "setting": "[1]; dog, 25 gm in 500 ml saline i.v. one hour before ischemia, control 2 minutes", "result": 9, "unit": "min"}, {"measurement": "TNF-α released by monocytes", "setting": "[1]; dog, in vivo", "result": "reduced"}, {"measurement": "inflammation/pain and injury induced by inflammation", "setting": "[1]; dog, in vivo", "result": "reduced"}, {"measurement": "level of the cardiac-derived leukocyte factor", "setting": "[1]; dog, in vivo", "result": "reduced"}, {"measurement": "contractility on the Longerdorff working heart", "setting": "[1]; one-hour analysis, control strong only first 15-20 minutes", "result": "strong contractility throughout the one-hour analysis"}, {"measurement": "apoptosis as measured by caspase enzyme activity", "setting": "[1]; treated heart vs controls", "result": "significant reduction"}, {"measurement": "myocardial ATP compared to controls", "setting": "[1]; treated heart vs controls", "result": "three-fold increase"}, {"measurement": "intracellular edema as measured by MRI", "setting": "[1]; vs control", "result": "reduced"}, {"measurement": "myocardial tissue lactic acidosis (per MRI)", "setting": "[1]; vs control", "result": "reduced"}, {"measurement": "level of cell injury marker malondialdehyde", "setting": "[1]; vs controls", "result": "reduced"}]}
{"molecule": "LVVYPWT [Spinorphin, Leu-Val-Val-Tyr-Pro-Trp-Thr]", "values": [{"measurement": "inhibition of neutrophil chemotaxis stimulated by Nourin", "setting": "[2]", "result": "inhibited"}]}
{"molecule": "t-Boc-Phe-Leu-Phe-Leu-Phe (Boc-FLFLF; not fully specified (residues 2, 4); printed as t-Boc-Phe-Leu-Phe-Leu-Phe)", "values": [{"measurement": "inhibition of neutrophil chemotaxis induced by viral chemotactic factor", "setting": "[3]", "result": "30%-100%"}, {"measurement": "inhibition of fMLF chemotactic activity", "setting": "[4]", "result": "inhibits"}, {"measurement": "inhibition of neutrophil chemotaxis induced by vascular Nourin", "setting": "[2]; 10^-5 M final concentration", "result": "up to 60%"}, {"measurement": "inhibition of neutrophil chemotaxis induced by vascular Nourin, one human sample", "setting": "[2]; one human sample", "result": 100, "unit": "%"}]}
